Measured values: paper PMC3066128 (PLoS Biology, 2011)
Read-outs that look alike come from different tables or passages of the source.

What was measured:
α1 GlyR R65A [1] = conditions: IC50 α1 GlyR R65A (ref 23) over wt
α1 GlyR F63A [2] = conditions: ref Grudzinska et al. 23; cited from earlier work
human α1 GlyR A101F = human α1 GlyR A101F (Homo sapiens, UniProt P23415, A129F); test: cell-based; conditions: for mut/wt: IC50 α1 GlyR A101F over wt
Procedure: (§1) To address this question, we performed alanine-scanning mutagenesis of the homologous residues in the human GlyR or nAChR using structure-based sequence alignments with AChBP (see Figure S1). The two-electrode voltage-clamp technique was used to measure ligand potency on wild type and mutant GlyR or nAChR expressed in Xenopus oocytes. […] One of these mutants, F207A, was previously characterized in the work from Grundzinska et al..
(§2) Competitive binding assays with ^3H-epibatidine were carried out as previously published with minor modifications (see Text S1). Electrophysiological assays were carried out using the two-electrode voltage clamp technique. The cDNA encoding human α1 GlyR was subcloned into pGEM-HE for oocyte expression with a PCR strategy and verified by sequencing. The cDNA was linearized with NheI and transcribed with the T7 mMessage mMachine kit from Ambion. The cDNA encoding the human α7 nAChR was cloned into pMXT and linearized with BamHI for transcription with the SP6 mMessage mMachine kit from Ambion. All mutants were engineered using a Quikchange method (Stratagene) and verified by sequencing. Recordings were obtained from oocytes 2–5 d after injection with 50 nl of ∼1 ng/nl RNA. […] Student's t test was used for statistical comparison of paired observations.

human α1 GlyR wt = human α1 GlyR wt (Homo sapiens, UniProt P23415); test: cell-based
human α1 GlyR wt, sequence (P23415 29-457): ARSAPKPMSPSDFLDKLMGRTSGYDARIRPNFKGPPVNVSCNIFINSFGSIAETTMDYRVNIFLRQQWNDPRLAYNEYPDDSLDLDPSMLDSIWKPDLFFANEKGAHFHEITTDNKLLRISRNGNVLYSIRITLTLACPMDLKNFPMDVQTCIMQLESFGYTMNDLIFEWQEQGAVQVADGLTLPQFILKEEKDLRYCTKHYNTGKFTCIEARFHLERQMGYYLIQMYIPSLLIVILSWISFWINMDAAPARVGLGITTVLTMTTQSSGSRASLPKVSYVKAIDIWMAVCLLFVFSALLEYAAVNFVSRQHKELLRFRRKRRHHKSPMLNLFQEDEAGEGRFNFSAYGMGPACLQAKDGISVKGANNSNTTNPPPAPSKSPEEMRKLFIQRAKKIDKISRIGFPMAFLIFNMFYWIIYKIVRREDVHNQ
Procedure: as §1, §2

human α1 GlyR Q177A = human α1 GlyR Q177A (Homo sapiens, UniProt P23415, Q205A); test: cell-based; conditions: for mut/wt: IC50 α1 GlyR Q177A over wt
human α1 GlyR Q177A, sequence (P23415 29-457 Q205A): as the sequence (P23415 29-457) above, with Q177A counted along it
Procedure: as §1, §2

human α1 GlyR I210A = human α1 GlyR I210A (Homo sapiens, UniProt P23415, I238A); test: cell-based
human α1 GlyR I210A, sequence (P23415 29-457 I238A): as the sequence (P23415 29-457) above, with I210A counted along it
Procedure: as §1, §2

human α1 GlyR S158A = human α1 GlyR S158A (Homo sapiens, UniProt P23415, S186A); test: cell-based; conditions: for mut/wt: IC50 α1 GlyR S158A over wt
human α1 GlyR S158A, sequence (P23415 29-457 S186A): as the sequence (P23415 29-457) above, with S158A counted along it
Procedure: as §1, §2

human α1 GlyR F207A = human α1 GlyR F207A (Homo sapiens, UniProt P23415, F235A); test: cell-based
human α1 GlyR F207A, sequence (P23415 29-457 F235A): as the sequence (P23415 29-457) above, with F207A counted along it
Procedure: as §1, §2

human α1 GlyR Q67A = human α1 GlyR Q67A (Homo sapiens, UniProt P23415, Q95A); test: cell-based; conditions: for mut/wt: IC50 α1 GlyR Q67A over wt
human α1 GlyR Q67A, sequence (P23415 29-457 Q95A): as the sequence (P23415 29-457) above, with Q67A counted along it
Procedure: as §1, §2

human α1 GlyR S129A = human α1 GlyR S129A (Homo sapiens, UniProt P23415, S157A); test: cell-based; conditions: for mut/wt: IC50 α1 GlyR S129A over wt
human α1 GlyR S129A, sequence (P23415 29-457 S157A): as the sequence (P23415 29-457) above, with S129A counted along it
Procedure: as §1, §2

human α1 GlyR F44A = human α1 GlyR F44A (Homo sapiens, UniProt P23415, F72A); test: cell-based; conditions: for mut/wt: IC50 α1 GlyR F44A over wt
human α1 GlyR F44A, sequence (P23415 29-457 F72A): as the sequence (P23415 29-457) above, with F44A counted along it
Procedure: as §1, §2

human α1 GlyR L127A = human α1 GlyR L127A (Homo sapiens, UniProt P23415, L155A); test: cell-based; conditions: for mut/wt: IC50 α1 GlyR L127A over wt
human α1 GlyR L127A, sequence (P23415 29-457 L155A): as the sequence (P23415 29-457) above, with L127A counted along it
Procedure: as §1, §2

α1 GlyR R65A [3] = conditions: ref Grudzinska et al. 23; cited from earlier work
human α1 GlyR = conditions: taken from previous study; cited from earlier work
human α7 nAChR = target: T1, human α7 nAChR (Homo sapiens, UniProt P36544); test: biochemical; format: binding
T1 construct: expressed in transfected cells
T1 sequence (P36544 23-502): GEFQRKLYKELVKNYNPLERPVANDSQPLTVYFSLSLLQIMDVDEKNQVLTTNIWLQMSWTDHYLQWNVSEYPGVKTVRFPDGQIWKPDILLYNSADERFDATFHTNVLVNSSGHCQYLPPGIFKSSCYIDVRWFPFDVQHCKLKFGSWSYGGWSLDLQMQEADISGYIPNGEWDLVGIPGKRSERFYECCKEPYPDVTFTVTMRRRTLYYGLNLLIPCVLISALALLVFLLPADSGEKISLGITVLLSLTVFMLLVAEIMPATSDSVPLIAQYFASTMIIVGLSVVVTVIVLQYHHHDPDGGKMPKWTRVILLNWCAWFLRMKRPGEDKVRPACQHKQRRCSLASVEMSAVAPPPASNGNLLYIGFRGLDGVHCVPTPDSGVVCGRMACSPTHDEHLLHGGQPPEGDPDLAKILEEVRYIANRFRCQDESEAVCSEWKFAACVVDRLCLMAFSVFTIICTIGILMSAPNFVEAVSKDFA
Procedure: Human neuroblastoma cells (SH-SY5Y) stably expressing human α7 nAChR were obtained from Christian Fuhrer (Department of Neurochemistry, Brain Research Institute, University of Zurich). The cells were maintained in DMEM/F12 (Dulbecco's Modified Eagle Medium / Nutrient Mixture F-12) supplemented with 10% fetal calf serum (FCS), 50 IU/mL penicillin, 50 µg/mL streptomycin and 0.1 mg/ml geneticin in 5% CO2 humidified atmosphere at 37°C. Batches of cells from several passages were washed 3x with PBS, harvested and after centrifuging aliquots, the cell-pellets were stored at -80°C until use. Although there appeared to be little batch-to-batch variation, only one passage was used for the triplicate experiments as described below. […] The SPA beads were allowed to settle for 2-4 h and the radioactivity was measured in a Wallac 1450 MicroBeta liquid scintillation counter. All radioligand binding data were evaluated by a nonlinear, least-squares curve fitting procedure using Graphpad Prism (version 5.0a, GraphPad Software, Inc., San Diego, CA). […]
Frozen cell pellets with the human α7 nAChR were thawed, homogenized in ice-cold binding buffer, sonicated before use and added at 0.1 mg/ml. […] After drying the filter-plates, scintillation fluid (MicroScint, Perkin Elmer) was added and the radioactivity was measured as above.

Ls-AChBP = Ls-AChBP (Lymnaea stagnalis, UniProt P58154); test: biochemical; format: binding
Ls-AChBP, sequence (P58154 20-229): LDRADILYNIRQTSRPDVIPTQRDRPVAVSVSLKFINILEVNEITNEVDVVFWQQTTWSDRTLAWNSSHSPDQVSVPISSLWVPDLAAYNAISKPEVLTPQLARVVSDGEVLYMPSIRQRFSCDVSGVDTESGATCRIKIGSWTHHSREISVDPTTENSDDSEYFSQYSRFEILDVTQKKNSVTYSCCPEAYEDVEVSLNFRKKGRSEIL
Procedure: as §2
Human neuroblastoma cells (SH-SY5Y) stably expressing human α7 nAChR were obtained from Christian Fuhrer (Department of Neurochemistry, Brain Research Institute, University of Zurich). […] The SPA beads were allowed to settle for 2-4 h and the radioactivity was measured in a Wallac 1450 MicroBeta liquid scintillation counter.

α1 GlyR F63A [4] = conditions: IC50 α1 GlyR F63A (ref 23) over wt
human α7 nAChR Q117A = target: T2, human α7 nAChR Q117A (Homo sapiens, UniProt P36544, Q139A); test: Two-electrode voltage clamp, α7 nAChR Q117A in Xenopus oocytes; format: cell-based; conditions: co-applied with EC50 acetylcholine
T2 construct: expressed in transfected cells; host or cells: Xenopus oocytes injected with cRNA (pMXT)
T2 sequence (P36544 23-502 Q139A): as the sequence (P36544 23-502) above, with Q117A counted along it
From the text: as §1
(§3) For d-TC, previous mutagenesis studies have been carried out either on the muscle-type nAChR [1] or 5-HT3R [5],[12]. […] Both model systems either complicate the mutational analysis or make it difficult to derive conclusions that can be generalized to other CLRs. Here, we chose the human α7 nAChR to characterize the effect of homologous contact mutations on the potency of d-TC. The α7 nAChR, which is also a target of d-TC [4], is closely related to Ac-AChBP and is an attractive model system to extrapolate the results obtained from our X-ray crystal structures.
(§4) Competitive binding assays with ^3H-epibatidine were carried out as previously published with minor modifications (see Text S1). Electrophysiological assays were carried out using the two-electrode voltage clamp technique. The cDNA encoding human α1 GlyR was subcloned into pGEM-HE for oocyte expression with a PCR strategy and verified by sequencing. […]

human α7 nAChR S148A = target: T3, human α7 nAChR S148A (Homo sapiens, UniProt P36544, S170A); test: Two-electrode voltage clamp, α7 nAChR S148A in Xenopus oocytes; format: cell-based; conditions: co-applied with EC50 acetylcholine
T3 construct: expressed in transfected cells; host or cells: Xenopus oocytes injected with cRNA (pMXT)
T3 sequence (P36544 23-502 S170A): as the sequence (P36544 23-502) above, with S148A counted along it
From the text: as §1, §3, §4

human α7 nAChR W55A = target: T4, human α7 nAChR W55A (Homo sapiens, UniProt P36544, W77A); test: Two-electrode voltage clamp, α7 nAChR W55A in Xenopus oocytes; format: cell-based; conditions: co-applied with EC50 acetylcholine
T4 construct: expressed in transfected cells; host or cells: Xenopus oocytes injected with cRNA (pMXT)
T4 sequence (P36544 23-502 W77A): as the sequence (P36544 23-502) above, with W55A counted along it
From the text: as §1, §3, §4

human α7 nAChR wt = target: T5, human α7 nAChR wt (Homo sapiens, UniProt P36544); test: Two-electrode voltage clamp, wild type α7 nAChR in Xenopus oocytes; format: cell-based; conditions: co-applied with EC50 acetylcholine
T5 construct: expressed in transfected cells; host or cells: Xenopus oocytes injected with cRNA (pMXT)
T5 sequence (P36544 23-502): as the sequence (P36544 23-502) above
From the text: as §1, §3, §4

mouse 5-HT3R = target: mouse 5-HT3R; design: method as in PMID 10026168; conditions: taken from previous study; cited from earlier work
human α7 nAChR G167A = target: T6, human α7 nAChR G167A (Homo sapiens, UniProt P36544, G189A); test: Two-electrode voltage clamp, α7 nAChR G167A in Xenopus oocytes; format: cell-based; conditions: co-applied with EC50 acetylcholine
T6 construct: expressed in transfected cells; host or cells: Xenopus oocytes injected with cRNA (pMXT)
T6 sequence (P36544 23-502 G189A): as the sequence (P36544 23-502) above, with G167A counted along it
From the text: as §1, §3, §4

5-HT3R = conditions: human versus mouse 5-HT3R; cited from earlier work
human α7 nAChR Y93A = target: T7, human α7 nAChR Y93A (Homo sapiens, UniProt P36544, Y115A); test: Two-electrode voltage clamp, α7 nAChR Y93A in Xenopus oocytes; format: cell-based; conditions: co-applied with EC50 acetylcholine
T7 construct: expressed in transfected cells; host or cells: Xenopus oocytes injected with cRNA (pMXT)
T7 sequence (P36544 23-502 Y115A): as the sequence (P36544 23-502) above, with Y93A counted along it
From the text: as §1, §3, §4

human α7 nAChR S36A = target: T8, human α7 nAChR S36A (Homo sapiens, UniProt P36544, S58A); test: Two-electrode voltage clamp, α7 nAChR S36A in Xenopus oocytes; format: cell-based; conditions: co-applied with EC50 acetylcholine
T8 construct: expressed in transfected cells; host or cells: Xenopus oocytes injected with cRNA (pMXT)
T8 sequence (P36544 23-502 S58A): as the sequence (P36544 23-502) above, with S36A counted along it
From the text: as §1, §3, §4

human α7 nAChR L119A = target: T9, human α7 nAChR L119A (Homo sapiens, UniProt P36544, L141A); test: Two-electrode voltage clamp, α7 nAChR L119A in Xenopus oocytes; format: cell-based; conditions: co-applied with EC50 acetylcholine
T9 construct: expressed in transfected cells; host or cells: Xenopus oocytes injected with cRNA (pMXT)
T9 sequence (P36544 23-502 L141A): as the sequence (P36544 23-502) above, with L119A counted along it
From the text: as §1, §3, §4

muscle-type nAChR = system: muscle-type nAChR; design: method as in PMID 8415719; conditions: heteropentameric muscle-type nAChR; cited from earlier work
human α7 nAChR E193A = target: T10, human α7 nAChR E193A (Homo sapiens, UniProt P36544, E215A); test: Two-electrode voltage clamp, α7 nAChR E193A in Xenopus oocytes; format: cell-based; conditions: co-applied with EC50 acetylcholine
T10 construct: expressed in transfected cells; host or cells: Xenopus oocytes injected with cRNA (pMXT)
T10 sequence (P36544 23-502 E215A): as the sequence (P36544 23-502) above, with E193A counted along it
From the text: as §1, §3, §4

human α1 GlyR A101F, sequence (P23415 29-457 A129F): as the sequence (P23415 29-457) above, with A101F counted along it

## O=C1C[C@@H]2OCC=C3CN4CC[C@]56c7ccccc7N1[C@H]5[C@H]2[C@H]3C[C@H]46 [strychnine]
α1 GlyR R65A [1]
  mut/wt: 3
α1 GlyR R65A [1]; listed as Strychnine
  mut/wt: 3.4
α1 GlyR F63A [2]
  IC50: 12 µM
Human α1 GlyR A101F
  IC50: 0.583 ± 0.0476 µM
  mut/wt: ~10
Human α1 GlyR A101F; listed as Strychnine
  mut/wt: 12
Human α1 GlyR wt
  IC50: 0.0468 ± 0.00875 µM
Human α1 GlyR Q177A
  IC50: 0.00336 ± 0.00063 µM
  mut/wt: apparent increase in strychnine-potency
Human α1 GlyR Q177A; listed as Strychnine
  mut/wt: 0.1
Human α1 GlyR Q177A; α1 GlyR Q177A, co-applied with EC50 glycine
  IC50: significant decrease in the IC50-values
Human α1 GlyR I210A
  IC50: 0.103 ± 0.019 µM
Human α1 GlyR I210A; IC50 α1 GlyR I210A over wt
  mut/wt: 2.2
Human α1 GlyR S158A
  IC50: 13.8 µM
  mut/wt: 300
Human α1 GlyR S158A; listed as Strychnine
  mut/wt: 294
Human α1 GlyR F207A
  IC50: 5590 ± 1890 µM
Human α1 GlyR F207A; IC50 α1 GlyR F207A over wt
  mut/wt: 119,444
Human α1 GlyR Q67A
  IC50: 0.689 ± 0.176 µM
  mut/wt: 15
Human α1 GlyR Q67A; listed as Strychnine
  mut/wt: 14.7
Human α1 GlyR S129A
  IC50: 0.358 ± 0.144 µM
  mut/wt: ~10
Human α1 GlyR S129A; listed as Strychnine
  mut/wt: 8
Human α1 GlyR F44A
  IC50: 0.13 ± 0.00406 µM
  mut/wt: 3
Human α1 GlyR F44A; listed as Strychnine
  mut/wt: 2.8
Human α1 GlyR L127A
  IC50: 0.376 ± 0.0692 µM
  mut/wt: ~10
Human α1 GlyR L127A; listed as Strychnine
  mut/wt: 8
α1 GlyR R65A [3]
  IC50: 0.16 ± 0.05 µM
Human α1 GlyR
  Ki: 0.016 ± 0.002 µM
Human α7 nAChR
  Ki: 4.85 µM
Ls-AChBP
  Ki: 0.224 ± 0.0263 µM
α1 GlyR F63A [4]
  mut/wt: 250
α1 GlyR F63A [4]; listed as Strychnine
  mut/wt: 256

## COc1cc2c3cc1Oc1cc(ccc1O)C[C@@H]1c4c(cc(OC)c(O)c4Oc4ccc(cc4)C[C@@H]3N(C)CC2)CC[N+]1(C)C [d-tubocurarine]
Human α7 nAChR Q117A
  IC50: 2.28 ± 0.14 µM
Human α7 nAChR S148A
  IC50: 176 ± 10.8 µM
Human α7 nAChR W55A
  IC50: 16.7 ± 0.94 µM
Human α7 nAChR wt
  IC50: 1.19 ± 0.17 µM
Mouse 5-HT3R
  Ki: 0.138 ± 0.022 µM
Human α7 nAChR G167A
  IC50: significant decrease in the IC50-values
Human α7 nAChR G167A; read-out: IC50
  IC50: 0.043 ± 0.002 µM
5-HT3R
  difference in affinity between human and mouse 5-HT3R: more than 1,000 fold
Human α7 nAChR Y93A
  IC50: 7.81 ± 0.98 µM
Human α7 nAChR S36A
  IC50: 2.25 ± 0.52 µM
Human α7 nAChR; competition with 3H-methyllycaconitine, human α7 nAChR, read-out: Ki
  Ki: 2.98 µM
Human α7 nAChR L119A
  IC50: 9.19 ± 2.16 µM
Ls-AChBP
  Ki: 0.171 ± 0.0183 µM
muscle-type nAChR
  difference in affinity between the two binding sites: 100 fold
Human α7 nAChR E193A
  IC50: 8.1 ± 0.68 µM
